According to publication PMC10526274, “Epithelial-Immune Cell Crosstalk Determines the Activation of Immune Cells In Vitro by the Human Cathelicidin LL-37 at Low Physiological Concentrations” (Biomolecules, 2023):
“And” between values parts separate entries of the source, which are not always exact repeats. Identical values can stand only once.

Tested on: Caco-2/moDCs co-culture
Assay: Multiplex xMAP cytokine levels, Caco-2/moDCs co-culture stimulated with LL-37
Assay type: cell-based, human
Conditions: moDCs/Caco-2 co-culture, 1 µM LL-37, 24 h, n=2
Description: Caco-2 cell line (ATCC HTB-37) was cultured in a humidified CO2-incubator (5% CO2, 37 °C) in the complete DMEM/F12 (1:1) medium (Gibco, Waltham, MA, USA) containing 10% fetal bovine serum (FBS, Gibco) and 1X antibiotic–antimycotic solution (Gibco). To stabilize the cell phenotype, Caco-2 cells have been subcultivated three times before seeding on the filter supports. Then, Caco-2 cells were seeded at a density of 2 × 10^5 cells/cm^2 onto 24-well Millicell cell culture inserts (PC, 0.4-μm pore size, 0.6 cm^2 surface area, cat. #PIHP01250) (Millipore, Burlington, MA, USA), precoated with 0.2% bovine gelatin (Sigma-Aldrich, Saint Louis, MO, USA). After seeding, Caco-2 cells were grown in the same complete medium with re-feeding every 2–3 days until polarization of the monolayer occurred. The functional polarity of the monolayers was developed when transepithelial electrical resistance (TEER) between the apical and basolateral surfaces of the monolayers reached […] as measured by the electrical resistance system Millicell-ERS Voltohmmeter (Millipore, Burlington, MA, USA). Grown cell monolayers were used in transport and cytokine production experiments between the 21st and 29th days.
Peripheral blood mononuclear cells (PBMCs) from a healthy donor were purchased from the American Type Culture Collection (ATCC PCS-800-011). Blood monocytes were isolated from PBMCs by plastic adhesion. Mature monocyte-derived dendritic cells (moDCs) were generated in vitro from peripheral blood monocytes, according to Nair et al.. Briefly, monocytes were cultured in a humidified CO2-incubator (5% CO2, 37 °C) in the complete RPMI-1640 medium (Gibco) with 10% FBS, antibiotics, and supplemented with a cytokine cocktail containing 500 U/mL rhIL-4 and 800 U/mL rhGM-CSF (both Sci-Store, Moscow, Russia). On the third day, the medium was replaced by the same fresh medium with FBS, antibiotics, and the cytokine cocktail. Induction of maturation of the immature monocyte-derived dendritic cells was performed on the 5th day by replacing the medium with the complete RPMI-1640 medium (Gibco) with 10% FBS and antibiotics, supplemented with a cytokine cocktail containing 500 U/mL rhIL-4, 800 U/mL rhGM-CSF (both Sci-Store, Moscow, Russia), and 100 U/mL rhTNF-α (Sigma-Aldrich), and subjected to subsequent incubation of the culture for 4 more days.
Primary blood monocytes, moDCs, and NKT cells were seeded in 600 µL of complete RPMI-1640 with 10% Human AB serum (Capricorn Scientific, Ebsdorfergrund, Germany) and supplemented with 1X antibiotic–antimycotic solution into the wells of 24-well plates at a density of 3–7 × 10^5 cells/well 24 h before the experiment. Then, 24 h later, the medium in each well was replaced by the same medium with 1 µM of LL-37 for the sample wells or fresh medium alone for the control wells, and the permeable inserts with the Caco-2 monolayer with TEER > 400 Ω × cm^2, containing 400 μL of the complete medium in their apical chamber, were immediately placed into the appropriate wells. Also, inserts with the Caco-2 monolayer were placed in cell-free wells of 24-well plates in the same complete RPMI-1640 medium with or without 1 µM of LL-37 as controls. Cells were kept in a CO2-incubator (5% CO2, 37 °C) for another 24 h. Then, culture medium from each well was collected, centrifuged, and frozen at −70 °C.
To quantitatively evaluate a broad spectrum of analytes secreted by human cell cultures at the protein level, multiplex xMAP technology was used. […]

LL-37: the only human cathelicidin, host defense antimicrobial peptide of 37 a.a. residues, produced by solid-phase peptide synthesis
IL-2 level (control 0.75): 1.12 pg/mL | FLT-3L level (control 0.87): 0.93 pg/mL | IL-3 level (control 0.91): 0.91 pg/mL | IFNg level (control 2): 2.28 pg/mL | IL-18 level (control 2.49): 1.42 pg/mL | IL-15 level (control 3.19): 3.42 pg/mL | IL-4 level (control 4.19): 6.58 pg/mL | IL-5 level (control 4.46): 2.93 pg/mL | TGF-a level (control 5.8): 5.22 pg/mL | IL-1b level (control 5.83): 5.83 pg/mL | EGF level (control 6.26): 6.51 pg/mL | IL-9 level (control 7.45): 7.45 pg/mL | IFNa2 level (control 8.64): 10.16 pg/mL | TNFb level (control 9.34): 15.39 pg/mL | GM-CSF level (control 10.7): 8.75 pg/mL | IL-1RA level (control 11.1): 13.57 pg/mL | G-CSF level (control 16.25): 14.89 pg/mL | Fractalkine level (control 22.95): 25.92 pg/mL | IL-6 level (control 23.82): 26.83 pg/mL | IL-22 level (control 26.11, p = 0.10): 37 pg/mL and 37.22 pg/mL | TNFa level (control 41.39): 44.26 pg/mL | IL-13 level (control 43.59): 50.71 pg/mL | FGF-2 level (control 47.27): 47.27 pg/mL | IL-12 (p40) level (control 57.35): 55.01 pg/mL | GROa level (control 60.81): 70.33 pg/mL | IL-27 level (control 63.66): 70.72 pg/mL | PDGF-AB/BB level (control 72.4): 83.52 pg/mL | IL-10 level (control 81.69, p = 0.0035): 52 pg/mL and 52.63 pg/mL | IP-10 level (control 90.92): 118.06 pg/mL | sCD40L level (control 95.47): 95.47 pg/mL | RANTES level (control 142.05): 223.43 pg/mL | M-GSF level (control 168.7): 172.56 pg/mL | PDGF-AA level (control 252.85): 237.55 pg/mL | MCP-3 level (control 376.42): 372.12 pg/mL | VEGFa level (control 723.09): 1786 pg/mL | MIP-1a level (control 1271): 1487 pg/mL | MIP-1b level (control 1340): 1789 pg/mL | MCP-1 level (control 2519): 1925 pg/mL | IL-8 level (control 2799): 3052 pg/mL | MIG level (control 25746): 25834 pg/mL | IL-7 level (control <0.30): <0.30↓ pg/ml | IL-17A level (control <0.70): <0.70↓ pg/ml | IL-1a level (control <1.30): <1.30↓ pg/ml | IL-12 (p70) level (control <1.71): <1.71↓ pg/ml | Eotaxin level (control <2.91): 3.03 pg/mL | IL-17F level (control <12.19): <12.19↓ pg/ml | IL-17E/IL-25 level (control <19.43): <19.43↓ pg/ml | MDC level (control >14590): 6291 pg/mL
